Laboratory results from ChEMBL document CHEMBL1201862, “PubChem BioAssay data set” (2004).
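Exposure lasted 48 hours, with cells grown in 96-well plates and compounds tested at five concentrations. At the GI50, growth is halved.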 Active and inactive are the calls of the source. Cut-off read from the data, not from the text of the source: active = GI50 up to about 1.1 µM and inactive = higher.

How the values were obtained:
Assay in all cases: inhibition of tumour cell growth, NCI panel, 48 h
[1] = system: UACC-62
[2] = system: HCC 2998
[3] = system: NCI-H522
[4] = system: HOP-62
[5] = system: UACC-257
[6] = system: HOP-92
[7] = system: U-251
[8] = system: A498
[9] = system: SK-MEL-28
[10] = system: KM-20L2
[11] = system: M14
[12] = system: OVCAR-3
[13] = system: ACHN
[14] = system: SF-268
[15] = system: SNB-78
[16] = system: OVCAR-4
[17] = system: DU-145
[18] = system: T47D
[19] = system: Hs-578T
[20] = system: PC-3

SMILES	GI50 [1]	GI50 [2]	GI50 [3]	GI50 [4]	GI50 [5]	GI50 [6]	GI50 [7]	GI50 [8]	GI50 [9]	GI50 [10]	GI50 [11]	GI50 [12]	GI50 [13]	GI50 [14]	GI50 [15]	GI50 [16]	GI50 [17]	GI50 [18]	GI50 [19]	GI50 [20]
CS(=O)(=O)CC1=Nc2nnc(CCCCCCCc3nnc4n3C(=O)C(CS(C)(=O)=O)=N4)n2C1=O	> 100 µM (inactive)	> 100 µM (inactive)	> 100 µM (inactive)	> 100 µM (inactive)	> 100 µM (inactive)	> 100 µM (inactive)	> 100 µM (inactive)	> 100 µM (inactive)	> 100 µM (inactive)	> 100 µM (inactive)	> 100 µM (inactive)	> 100 µM (inactive)	> 100 µM (inactive)	> 100 µM (inactive)	–	–	–	–	–	–
CC(=O)CN(Cc1cc(C)c2c(c1)c1ccccc1n2Cc1ccccc1)S(=O)(=O)c1ccc(C)cc1	> 100 µM (inactive)	> 100 µM (inactive)	> 100 µM (inactive)	> 100 µM (inactive)	> 100 µM (inactive)	> 100 µM (inactive)	–	–	> 100 µM (inactive)	–	> 100 µM (inactive)	> 100 µM (inactive)	–	> 100 µM (inactive)	> 100 µM (inactive)	> 100 µM (inactive)	–	–	–	–
COc1cccc(/C=N/NC(N)=O)c1O	> 100 µM (inactive)	> 100 µM (inactive)	> 100 µM (inactive)	> 100 µM (inactive)	> 100 µM (inactive)	> 100 µM (inactive)	> 100 µM (inactive)	> 100 µM (inactive)	> 100 µM (inactive)	> 100 µM (inactive)	> 100 µM (inactive)	> 100 µM (inactive)	> 100 µM (inactive)	> 100 µM (inactive)	–	> 100 µM (inactive)	–	–	–	–
COc1cccc(N2C(=O)C3C4C=C5c6ccccc6N(c6ccccc6)C5(C3C2=O)[C@H]2C(=O)N(c3cccc(OC)c3)C(=O)[C@@H]42)c1 (stereo partly drawn)	> 100 µM (inactive)	–	–	> 100 µM (inactive)	> 100 µM (inactive)	> 100 µM (inactive)	> 100 µM (inactive)	> 100 µM (inactive)	–	> 100 µM (inactive)	> 100 µM (inactive)	> 100 µM (inactive)	–	> 100 µM (inactive)	> 100 µM (inactive)	> 100 µM (inactive)	–	–	–	–
OC1C2CCC1C1C3C=CC(C3)C21 (stereo not drawn)	> 100 µM (inactive)	–	50.9 µM (inactive)	> 100 µM (inactive)	> 100 µM (inactive)	34.4 µM (inactive)	> 100 µM (inactive)	–	> 100 µM (inactive)	77.3 µM (inactive)	> 100 µM (inactive)	> 100 µM (inactive)	95.9 µM (inactive)	> 100 µM (inactive)	> 100 µM (inactive)	> 100 µM (inactive)	–	–	–	–
CCCCCCCCCCCCCCC1OC(=O)c2ccccc21 (stereo not drawn)	> 100 µM (inactive)	–	–	> 100 µM (inactive)	52.7 µM (inactive)	–	> 100 µM (inactive)	> 100 µM (inactive)	> 100 µM (inactive)	42.9 µM (inactive)	> 100 µM (inactive)	79.8 µM (inactive)	43.5 µM (inactive)	> 100 µM (inactive)	> 100 µM (inactive)	66.7 µM (inactive)	–	–	–	–
C[N+](C)(C)CC(=O)N/N=C/c1oc(-c2c(O)ccc3ccccc23)c(-c2c(O)ccc3ccccc23)c1[N+](=O)[O-]	1.53 µM (inactive)	16 µM (inactive)	15.8 µM (inactive)	–	18.5 µM (inactive)	12.7 µM (inactive)	15 µM (inactive)	16.9 µM (inactive)	21.3 µM (inactive)	3.1 µM (inactive)	17.3 µM (inactive)	16.3 µM (inactive)	3.31 µM (inactive)	12.4 µM (inactive)	–	21.5 µM (inactive)	15.4 µM (inactive)	–	–	–
CC(=O)OCCOCNC(=S)N/N=C(\C)c1cccs1	> 100 µM (inactive)	> 100 µM (inactive)	> 100 µM (inactive)	> 100 µM (inactive)	> 100 µM (inactive)	–	> 100 µM (inactive)	> 100 µM (inactive)	> 100 µM (inactive)	> 100 µM (inactive)	> 100 µM (inactive)	> 100 µM (inactive)	> 100 µM (inactive)	> 100 µM (inactive)	> 100 µM (inactive)	> 100 µM (inactive)	–	–	–	–
CC(=O)n1c2c(c(=O)n1-c1ccccc1)[S+]([O-])CCC2 (stereo not drawn)	20.3 µM (inactive)	< 0.01 µM (active)	5.65 µM (inactive)	11.1 µM (inactive)	46.7 µM (inactive)	–	> 100 µM (inactive)	> 100 µM (inactive)	> 100 µM (inactive)	> 71.6 µM (inactive)	49.7 µM (inactive)	57.1 µM (inactive)	46.8 µM (inactive)	> 100 µM (inactive)	85.9 µM (inactive)	0.705 µM (active)	–	–	–	–
O=[N+]([O-])c1ccc(-c2cnc3ccccn23)cc1	> 100 µM (inactive)	–	> 100 µM (inactive)	> 100 µM (inactive)	> 100 µM (inactive)	–	> 100 µM (inactive)	> 100 µM (inactive)	> 100 µM (inactive)	> 100 µM (inactive)	> 100 µM (inactive)	> 100 µM (inactive)	> 100 µM (inactive)	> 100 µM (inactive)	> 100 µM (inactive)	> 100 µM (inactive)	–	–	–	–
CCOC(=O)C1Cc2c(ccc(OC)c2OC)C(=O)C1N (stereo not drawn)	> 100 µM (inactive)	> 100 µM (inactive)	> 100 µM (inactive)	> 100 µM (inactive)	> 100 µM (inactive)	> 100 µM (inactive)	> 100 µM (inactive)	–	> 100 µM (inactive)	> 100 µM (inactive)	> 100 µM (inactive)	93.1 µM (inactive)	> 100 µM (inactive)	–	> 100 µM (inactive)	82.2 µM (inactive)	–	–	–	–
CCc1[nH]nc(C(N)=O)c1/N=N/N(C)C	34.4 µM (inactive)	> 100 µM (inactive)	37.3 µM (inactive)	82.6 µM (inactive)	> 100 µM (inactive)	36.4 µM (inactive)	48.3 µM (inactive)	> 100 µM (inactive)	> 100 µM (inactive)	–	> 100 µM (inactive)	> 100 µM (inactive)	36.5 µM (inactive)	47.2 µM (inactive)	–	> 100 µM (inactive)	46.2 µM (inactive)	68.4 µM (inactive)	67.9 µM (inactive)	> 100 µM (inactive)
O=C1Cc2c(-c3cccs3)cc(-c3ccccc3)nc2-c2ccccc2N1	> 100 µM (inactive)	47.3 µM (inactive)	27.8 µM (inactive)	24.7 µM (inactive)	> 100 µM (inactive)	> 100 µM (inactive)	> 10 µM (inactive)	> 100 µM (inactive)	> 100 µM (inactive)	–	28.2 µM (inactive)	33.4 µM (inactive)	50.2 µM (inactive)	10.8 µM (inactive)	–	0.855 µM (active)	> 100 µM (inactive)	26.4 µM (inactive)	2.14 µM (inactive)	47.1 µM (inactive)
COc1cccc2c1C(=O)c1c(O)c3c(c(O)c1C2=O)C[C@@](O)(C(=O)CO)C[C@@H]3OC1CC2C(OCN3CN2COC2C(C)OC(O[C@H]4C[C@](O)(C(=O)CO)Cc5c(O)c6c(c(O)c54)C(=O)c4c(OC)cccc4C6=O)CC23)C(C)O1 (stereo partly drawn)	0.0345 µM (active)	0.0274 µM (active)	0.0218 µM (active)	0.04 µM (active)	0.05 µM (active)	0.0308 µM (active)	0.0186 µM (active)	0.0559 µM (active)	0.157 µM (active)	–	0.0861 µM (active)	0.112 µM (active)	0.0634 µM (active)	0.0319 µM (active)	–	0.237 µM (active)	0.0265 µM (active)	0.0167 µM (active)	0.0559 µM (active)	0.0929 µM (active)
COc1cc2cccc(NC(=O)c3cc(OC)c(OC)c(OC)c3Br)c2cc1OC	10.3 µM (inactive)	28.8 µM (inactive)	11.8 µM (inactive)	17.3 µM (inactive)	3.85 µM (inactive)	–	22.3 µM (inactive)	30.5 µM (inactive)	16.1 µM (inactive)	25.7 µM (inactive)	11.3 µM (inactive)	13.4 µM (inactive)	11.5 µM (inactive)	18.5 µM (inactive)	17.1 µM (inactive)	9.02 µM (inactive)	–	–	–	–
O=c1c2cccnc2[nH]c2ccc3scnc3c12	> 10 µM (inactive)	> 10 µM (inactive)	> 10 µM (inactive)	> 10 µM (inactive)	> 10 µM (inactive)	8.17 µM (inactive)	> 10 µM (inactive)	7.62 µM (inactive)	> 10 µM (inactive)	–	8.07 µM (inactive)	4.28 µM (inactive)	1.87 µM (inactive)	> 10 µM (inactive)	–	9.35 µM (inactive)	> 10 µM (inactive)	> 10 µM (inactive)	> 10 µM (inactive)	> 10 µM (inactive)
COc1ccc(NC(=O)CSc2nnc(-c3ccc(NC(C)=O)cc3)o2)cc1	16.5 µM (inactive)	19.7 µM (inactive)	14.5 µM (inactive)	34.1 µM (inactive)	21.5 µM (inactive)	–	15.7 µM (inactive)	15.5 µM (inactive)	18.7 µM (inactive)	19.5 µM (inactive)	17 µM (inactive)	17.8 µM (inactive)	16.7 µM (inactive)	15.8 µM (inactive)	13.8 µM (inactive)	15.7 µM (inactive)	–	–	–	–
N=C(N)SC(c1ccccc1)c1ccccc1	16 µM (inactive)	6.18 µM (inactive)	13.2 µM (inactive)	19.6 µM (inactive)	14.2 µM (inactive)	6.87 µM (inactive)	15.3 µM (inactive)	17.3 µM (inactive)	4.84 µM (inactive)	–	11.4 µM (inactive)	14.2 µM (inactive)	14.9 µM (inactive)	22.6 µM (inactive)	–	18.3 µM (inactive)	12.2 µM (inactive)	6.32 µM (inactive)	27.1 µM (inactive)	14.3 µM (inactive)
